According to patent US20150232900A1, “PAPER FOLDING METHOD AND DEVICE FOR MANUFACTURING FILTER CARTRIDGES” (MYKO TECH PRIVATE LIMITED, priority 2012, published 2015):

Tests used:
Type in all cases: cell-based
[1] = system: Human Cytomegalovirus AD-169; assay: Plaque forming unit (PFU) inhibition assay, Human Cytomegalovirus AD-169 in MRC5 cell line; settings: Human Cytomegalovirus AD-169, MRC5 cells, positive control, tested 0.33-100 μM
Method: EPS from the thraustochytrid designated MT-5 were tested for inhibition of Cytomegalovirus. A stock solution of 20 mg/ml of the EPS was prepared by solubilizing in 10% DMSO for injection into the cell lines infected by the virus.
Various dilutions of the stock EPS were prepared in the tissue culture medium, Dulbecco ? Modified Eagle medium with 2% fetal bovine serum and antibiotics. The dilutions were: (1) 100 ? /ml; (2) 33 ? /ml; (3) 10 ? /ml; (4) 3.3 μg/ml; (5) 1.0 ? /ml; (6) 0.33 μg/ml. A plaque forming unit (PFU) inhibition assay in 6-well plates in vitro was carried out. A known concentration of cells from MRC5 cell line was used to seed 6-well or 12-well plates for 24 hours. Each of the 6 different concentrations of the EPS was then added to duplicate wells and incubated for 1 hour and then approximately 50-100 plaque forming units of the Human Cytomegalovirus AD-169 in 10 ? were added to each well. Virus was allowed to absorb to the cells for 2 hours. After the incubation the virus was removed and agarose solution with EPS at each different was added to the appropriate infected well. Plates were incubated in a 37° C. CO2 incubator for 5 days. The drug Acyclovir was kept as a positive control, at concentrations of 100, 33, 10, 3.3, 1.0 and 0.33 μM concentrations. […] Plaques were counted and numbers recorded. […]

Human Adenovirus 5 = assay: Plaque forming unit (PFU) inhibition assay, Human Adenovirus 5 in A549 cell line; settings: Human Adenovirus 5, A549 cells, positive control, tested 0.33-100 μM; not at less
Method: EPS from two thraustochytrids, designated MT-5 and MT-6 were tested for inhibition of Adenovirus. A stock solution of 20 mg/ml of the EPS was prepared by solubilizing in 10% DMSO for injection into the cell lines infected by the virus. Various dilutions of the stock EPS were prepared in the tissue culture medium, Dulbecco ? Modified Eagle medium with 2% fetal bovine serum and antibiotics. The dilutions were: (1) 100 μg/ml; (2) 33 μg/ml; (3) 10 μg/ml; (4) 3.3 μg/ml; (5) 1.0 μg/ml; (6) 0.33 μg/ml. A plaque forming unit (PFU) inhibition assay in 6-well plates in vitro was carried out. A known concentration of cells from A549 cell line was used to seed 6-well or 12-well plates for 24 hours. Each of the 6 different concentrations of the EPS was then added to duplicate wells and incubated for 1 hour and then approximately 50-100 plaque forming units of Human Adenovirus 5 in 10 ? were added to each well. Virus was allowed to absorb to the cells for 2 hours. After the incubation the virus was removed and agarose solution with EPS at each different was added to the appropriate infected well. Plates were incubated in a 37° C. CO2 incubator for 5 days. The drug Cidofovir was kept as a positive control, at concentrations of 100, 33, 10, 3.3, 1.0 and 0.33 μM concentrations. […] Plaques were counted and numbers recorded. […]

[2] = system: Retrovirus XMRV (Xenotropic Murine Leukemia Virus); assay: Focus forming unit (FFU) inhibition assay, Retrovirus XMRV in PG4 cell line; settings: PG4 cells, positive control, tested 0.33-100 μM
Method: EPS from two thraustochytrids designated MT-5 and MT-6 were tested for inhibition of retrovirus A stock solution of 20 mg/ml of the EPS was prepared by solubilizing in 10% DMSO for injection into the cell lines infected by the virus. Various dilutions of the stock EPS were prepared in the tissue culture medium, Dulbecco ? Modified Eagle medium with 2% fetal bovine serum and antibiotics. The dilutions were: (1) 100 ? /ml; (2) 33 ? /ml; 10 ? /ml; (4) 3.3 μg/ml; (5) 1.0 μg/ml; (6) 0.33 μg/ml. A focus forming unit (FFU) inhibition assay in 6-well plates in vitro was carried out. A known concentration of cells from PG4 cell line was used to seed 6-well or 12-well plates for 24 hours. Each of the 6 different concentrations of the EPS was then added to duplicate wells and incubated for 1 hour and then approximately 50-100 focus forming units of the Retrovirus XMRV (Xenotropic Murine Leukemia Virus) in 10 ? were added to each well. Virus was allowed to absorb to the cells for 2 hours. After the incubation the virus was removed and agarose solution with EPS at each different was added to the appropriate infected well Plates were incubated in a 37° C. CO2 incubator for 5 days. The drug Tenofovir was kept as a positive control, at concentrations of 100, 33, 10, 3.3, 1.0 and 0.33 μM concentrations. At the end of incubation, cultures were fixed and stained with crystal violet to visualize the foci. […]

SMILES: Nc1nc2c(ncn2COCCO)c(=O)[nH]1 [Acyclovir]
- effective concentration (not effective at any concentration tested, up to the maximum) [1]: > 100.0 µM

SMILES: Nc1ccn(C[C@@H](CO)OCP(=O)(O)O)c(=O)n1 [Cidofovir]
- concentration that completely inhibited plaque formation (Human Adenovirus 5): 100 µM

SMILES: C[C@H](Cn1cnc2c(N)ncnc21)OCP(=O)(O)O [Tenofovir]
- concentration above which the drug was effective (viral foci) [2]: > 10.0 µM
- concentration that completely inhibited focal formation [2]: 100 µM
